Source: ChEMBL document CHEMBL1201862, “PubChem BioAssay data set” (2004)
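How tested: cells in 96-well plates exposed to compound for 48 hours at five concentrations. GI50 = concentration required for 50% inhibition of growth.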 Active and inactive are the calls of the source. Rule as the data show it: active = GI50 up to about 1.1 µM and inactive = higher.

Experiments:
Test in all cases: DTP human tumour cell line panel, 48 h
[1] = test system: DU-145
[2] = test system: HT-29
[3] = test system: OVCAR-5
[4] = test system: SK-MEL-2
[5] = test system: K562
[6] = test system: HCT-116
[7] = test system: LOX IMVI
[8] = test system: M14
[9] = test system: SF-295
[10] = test system: TK-10
[11] = test system: A498
[12] = test system: SK-MEL-5
[13] = test system: SK-OV-3
[14] = test system: OVCAR-4
[15] = test system: SK-MEL-28
[16] = test system: SNB-19
[17] = test system: MDA-MB-231
[18] = test system: NCI-H226
[19] = test system: NCI-H23

Row | Structure (SMILES) | GI50 [1] | GI50 [2] | GI50 [3] | GI50 [4] | GI50 [5] | GI50 [6] | GI50 [7] | GI50 [8] | GI50 [9] | GI50 [10] | GI50 [11] | GI50 [12] | GI50 [13] | GI50 [14] | GI50 [15] | GI50 [16] | GI50 [17] | GI50 [18] | GI50 [19]
1 | COC(=O)c1cc(C)ccc1CC(Cc1cccc(C)c1)C(=O)OC (stereo not drawn) | 92.9 µM (inactive) | 50.6 µM (inactive) | 17.3 µM (inactive) | 47.3 µM (inactive) | 45.7 µM (inactive) | 80.7 µM (inactive) | > 100 µM (inactive) | > 100 µM (inactive) | > 100 µM (inactive) | > 100 µM (inactive) | > 100 µM (inactive) | 34.8 µM (inactive) | 4.06 µM (inactive) | > 100 µM (inactive) | > 100 µM (inactive) | > 100 µM (inactive) | > 100 µM (inactive) | > 100 µM (inactive) | 38.5 µM (inactive)
2 | CCC(=O)NC(OCC1(CC)COC1)(C(F)(F)F)C(F)(F)F | > 100 µM (inactive) | > 100 µM (inactive) | > 100 µM (inactive) | > 100 µM (inactive) | > 100 µM (inactive) | > 100 µM (inactive) | > 100 µM (inactive) | > 100 µM (inactive) |  | > 100 µM (inactive) | > 100 µM (inactive) |  | > 100 µM (inactive) |  | > 100 µM (inactive) | > 100 µM (inactive) | > 100 µM (inactive) | > 100 µM (inactive) | > 100 µM (inactive)
3 | S=c1nc(Nc2ccc(Br)cc2)c2c3c(sc2[nH]1)CN(N1CCc2c(sc4[nH]c(=S)nc(Nc5ccc(Br)cc5)c24)C1)CC3 | 33.7 µM (inactive) | 15.5 µM (inactive) | 16 µM (inactive) | 14.9 µM (inactive) | 11.1 µM (inactive) | 12.3 µM (inactive) | 8.67 µM (inactive) | 8.36 µM (inactive) | 19.1 µM (inactive) | > 50 µM (inactive) | 11.3 µM (inactive) | 12 µM (inactive) | > 50 µM (inactive) | 30.2 µM (inactive) | 11.6 µM (inactive) | 22.5 µM (inactive) | 17.9 µM (inactive) | 20.8 µM (inactive) | 24 µM (inactive)
4 | Cc1nc(Nc2nc3ccccc3[nH]2)[nH]c(=O)c1CCO | 61.7 µM (inactive) | > 100 µM (inactive) | > 86.9 µM (inactive) | 37.2 µM (inactive) | > 100 µM (inactive) | 77.6 µM (inactive) | 44.8 µM (inactive) | 27.2 µM (inactive) | > 100 µM (inactive) | 39.4 µM (inactive) | > 100 µM (inactive) | 70.3 µM (inactive) | 38.3 µM (inactive) | > 100 µM (inactive) | > 100 µM (inactive) | > 100 µM (inactive) | 27.4 µM (inactive) | 26.6 µM (inactive) | 98.6 µM (inactive)
5 | CCn1cc(C(c2ccc(Cl)cc2)n2ccnc2)c2cc(Br)ccc21 (stereo not drawn) | 16.6 µM (inactive) | 7.55 µM (inactive) | 11.7 µM (inactive) | 17 µM (inactive) | 4.85 µM (inactive) | 16.1 µM (inactive) | 12.9 µM (inactive) | 13.3 µM (inactive) | 10.8 µM (inactive) | 16.1 µM (inactive) | 13.4 µM (inactive) | 15.7 µM (inactive) | 17.7 µM (inactive) | 9.64 µM (inactive) |  | 14.3 µM (inactive) | 14.8 µM (inactive) | 22.1 µM (inactive) | 14.5 µM (inactive)
6 | CC(C)CCCC(C)[C@H]1CC[C@H]2[C@@H]3CC[C@H]4C[C@@H](CCC=C(c5cc(Cl)c(O)c(C(=O)OC(C)(C)C)c5)c5cc(Cl)c(O)c(C(=O)OC(C)(C)C)c5)CC[C@]4(C)[C@H]3CC[C@]12C (stereo partly drawn) | > 50 µM (inactive) | > 50 µM (inactive) | > 50 µM (inactive) | > 50 µM (inactive) | > 50 µM (inactive) | > 50 µM (inactive) | > 50 µM (inactive) | > 50 µM (inactive) | > 50 µM (inactive) |  | > 50 µM (inactive) | > 50 µM (inactive) | > 50 µM (inactive) | > 50 µM (inactive) | > 50 µM (inactive) | > 50 µM (inactive) | > 50 µM (inactive) |  | > 50 µM (inactive)
7 | CCN(CC)CCNCc1cc(Cl)cc2c1OCOC2 | > 10 µM (inactive) | > 10 µM (inactive) | > 10 µM (inactive) | > 10 µM (inactive) | > 10 µM (inactive) | > 10 µM (inactive) | > 10 µM (inactive) | > 10 µM (inactive) | > 10 µM (inactive) | > 10 µM (inactive) | > 10 µM (inactive) | > 10 µM (inactive) | > 10 µM (inactive) | > 10 µM (inactive) | > 10 µM (inactive) | > 10 µM (inactive) | > 10 µM (inactive) | > 10 µM (inactive) | > 10 µM (inactive)
8 | O=C1c2ccccc2-[n+]2ccc3c([nH]c4ccccc43)c21 [FASCAPLYSIN CHLORIDE] | 1.15 µM (inactive) | 0.37 µM (active) | 0.48 µM (active) | 0.226 µM (active) | 0.925 µM (active) | 0.195 µM (active) | 0.245 µM (active) | 0.159 µM (active) | 0.232 µM (active) | 1.14 µM (inactive) | 1.58 µM (inactive) | 0.14 µM (active) | 1.56 µM (inactive) | 0.628 µM (active) | 0.34 µM (active) | 0.615 µM (active) | 0.22 µM (active) | 0.964 µM (active) | 0.31 µM (active)
9 | Cc1cc(C)c2c(n1)S(=O)(=O)N(CCCN1CCN(c3cccc(C(F)(F)F)c3)CC1)C(C(=O)c1ccccc1)=C2O | 13.4 µM (inactive) | 5.22 µM (inactive) | 7.36 µM (inactive) | 17.3 µM (inactive) | 3.69 µM (inactive) | 4.38 µM (inactive) | 3.03 µM (inactive) | 7.36 µM (inactive) | 4.11 µM (inactive) | 10.5 µM (inactive) | 8.57 µM (inactive) | 2.93 µM (inactive) | 20 µM (inactive) | 4.66 µM (inactive) | 9.64 µM (inactive) | 5.53 µM (inactive) | 20.3 µM (inactive) | 1.03 µM (active) | 5.06 µM (inactive)
10 | Cc1c(N2C(=O)CS(=O)(=O)C2c2cccc(Oc3ccccc3)c2)c(=O)n(-c2ccccc2)n1C (stereo not drawn) | 71.6 µM (inactive) | 34.4 µM (inactive) | > 100 µM (inactive) | 72.9 µM (inactive) | 24.3 µM (inactive) | 26.7 µM (inactive) | 47.6 µM (inactive) | 23.7 µM (inactive) | 84.9 µM (inactive) | 11.2 µM (inactive) | < 0.01 µM (active) | 35.6 µM (inactive) | 61.8 µM (inactive) | 14.6 µM (inactive) | > 100 µM (inactive) | > 100 µM (inactive) | > 100 µM (inactive) | 42.6 µM (inactive) | > 100 µM (inactive)
11 | c1csc(-c2ccc(-c3cccs3)c3nsnc23)c1 | 33.8 µM (inactive) | 49.8 µM (inactive) |  | > 48.6 µM (inactive) | 9.68 µM (inactive) | 19.8 µM (inactive) | 26.3 µM (inactive) | 37.8 µM (inactive) | 42.3 µM (inactive) | 7.64 µM (inactive) | > 100 µM (inactive) | > 33.6 µM (inactive) | > 49.7 µM (inactive) | 0.608 µM (active) | 20.2 µM (inactive) | > 90.8 µM (inactive) | 22.4 µM (inactive) | > 33.5 µM (inactive) | 22 µM (inactive)
12 | COc1c(Cl)ccc(Cl)c1C(=O)NNC(=O)c1c(Cl)c(Cl)c(Cl)c(Cl)c1-c1nc2cc(C(=O)c3ccccc3)ccc2[nH]1 | > 100 µM (inactive) | 62.1 µM (inactive) | > 100 µM (inactive) | 31.9 µM (inactive) | 26.7 µM (inactive) | 66.7 µM (inactive) | 55.1 µM (inactive) | 52.6 µM (inactive) | 34.9 µM (inactive) | 72.3 µM (inactive) | 61.2 µM (inactive) | 25.2 µM (inactive) | > 100 µM (inactive) | 44.9 µM (inactive) | 84.7 µM (inactive) | > 100 µM (inactive) | 37.6 µM (inactive) | 45.6 µM (inactive) | 64.1 µM (inactive)
13 | COc1ccc(C2=C(Cl)c3cc(OC)c(OC)cc3C2Cl)cc1 (stereo not drawn) | 17.9 µM (inactive) | 14.8 µM (inactive) | 15.5 µM (inactive) | 12.1 µM (inactive) | 5.24 µM (inactive) | 14.2 µM (inactive) | 12.2 µM (inactive) | 17.2 µM (inactive) | 15.4 µM (inactive) | 19.7 µM (inactive) | 13.2 µM (inactive) | 13.7 µM (inactive) | 13.6 µM (inactive) | 13.6 µM (inactive) | 16 µM (inactive) | 18.7 µM (inactive) | 17.7 µM (inactive) | 21.3 µM (inactive) | > 37.4 µM (inactive)
14 | O=C(c1ccc(Cl)cc1)N(C(=O)N1CCC(c2ccccc2)CC1)c1ccccc1 | 59 µM (inactive) | 31.3 µM (inactive) | 0.558 µM (active) | 37.2 µM (inactive) | 32.1 µM (inactive) | 17.5 µM (inactive) | 28.1 µM (inactive) | 18.4 µM (inactive) | 31 µM (inactive) | 30.7 µM (inactive) | 20.4 µM (inactive) | 15.4 µM (inactive) | > 100 µM (inactive) |  | 45.2 µM (inactive) | 72.1 µM (inactive) | 26.1 µM (inactive) | 17.8 µM (inactive) | 23.9 µM (inactive)
